Measured values: US8901035B2, “Herbicidal compositions comprising 4-amino-3-chloro-5-fluoro-6-(4-chloro-2-fluoro-3-methoxyphenyl) pyridine-2-carboxylic acid or a derivative thereof and cellulose biosynthesis inhibitor herbicides” (Dow AgroSciences LLC, priority 2012, dated 2014)

What was measured:
Format in all cases: in vivo
[1] = tested on: Brachiaria platyphylla (Griseb.) Nash or Urochloa platyphylla (Nash) R.D. Webster (BRAPP); test: Postemergence foliar-applied herbicidal mixtures, weed control in direct seeded rice (greenhouse)
Description: (§1) Seeds or nutlets of the desired test plant species were planted in a soil matrix prepared by mixing a loam or sandy loam soil (e.g., 28.6 percent silt, 18.8 percent clay, and 52.6 percent sand, with a pH of about 5.8 and an organic matter content of about 1.8 percent) and calcareous grit in an 80 to 20 ratio. The soil matrix was contained in plastic pots with a volume of 1 quart and a surface area of 83.6 square centimeters (cm^2). When required to ensure good germination and healthy plants, a fungicide treatment and/or other chemical or physical treatment was applied. The plants were grown for 8-22 days in a greenhouse with an approximate 14 h photoperiod which was maintained at about 29° C. during the day and 26° C. during the night. Nutrients (Peters Excel® 15-5-15 5-Ca 2-Mg and iron chelate) were applied in the irrigation solution as needed and water was added on a regular basis. Supplemental lighting was provided with overhead metal halide 1000-Watt lamps as necessary. The plants were employed for testing when they reached the first through fourth true leaf stage.
(§2) Treatments consisted of the acid or esters of 4-amino-3-chloro-5-fluoro-6-(4-chloro-2-fluoro-3-methoxy-phenyl) pyridine-2-carboxylic acid (Compound A), each formulated as an SC (suspension concentrate), and various herbicidal components alone and in combination. Forms of compound A were applied on an acid equivalent basis.
(§3) Other herbicidal components were applied on an active ingredient basis and included cellulose biosynthesis-inhibiting (CBI) herbicides isoxaben formulated as Gallery® 75DF and indaziflam formulated as Specticle® 20WSP.
(§4) Treatment requirements were calculated based upon the rates being tested, the concentration of active ingredient or acid equivalent in the formulation, and a 12 mL application volume at a rate of 187 L/ha.
(§5) For treatments comprised of formulated compounds, measured amounts of compounds were placed individually in 25 mL glass vials and diluted in a volume of 1.25% (v/v) Agri-Dex® crop oil concentrated to obtain 12× stock solutions. […] Application solutions were prepared by adding an appropriate amount of each stock solution (e.g., 1 mL) and diluted to the appropriate final concentrations with the addition of 10 mL of an aqueous mixture of 1.25% (v/v) crop oil concentrate so that the final spray solutions contained 1.25+/−0.05% (v/v) crop oil concentrate.
(§6) All stock solutions and applications solutions were visually inspected for compound compatibility prior to application. Spray solutions were applied to the plant material with an overhead Mandel track sprayer equipped with a 8002E nozzles calibrated to deliver 187 L/ha over an application area of 0.503 m^2 at a spray height of 18 to 20 inches (46 to 50 cm) above average plant canopy height. Control plants were sprayed in the same manner with the solvent blank.
(§7) The treated plants and control plants were placed in a greenhouse as described above and watered by sub-irrigation to prevent wash-off of the test compounds. After approximately 3 weeks, the condition of the test plants as compared with that of the untreated plants was determined visually and scored on a scale of 0 to 100 percent where 0 corresponds to no injury or growth inhibition and 100 corresponds to complete kill.
(§8) Colby's equation was used to determine the herbicidal effects expected from the mixtures (Colby, S. R. 1967. Calculation of the synergistic and antagonistic response of herbicide combinations. Weeds 15:20-22).
(§9) The following equation was used to calculate the expected activity of mixtures containing two active ingredients, A and B: Expected=A+B−(A×B/100)
(§10) A=observed efficacy of active ingredient A at the same concentration as used in the mixture.
(§11) B=observed efficacy of active ingredient B at the same concentration as used in the mixture.

Cyperus iria L. (CYPIR) = test: as above
Description: as §1, §2, §3, §4, §5, §6, §7, §8, §9, §10, §11

[2] = tested on: Digitaria sanguinalis (L.) Scop. (DIGSA); test: as above
Description: as §1, §2, §3, §4, §5, §6, §7, §8, §9, §10, §11

[3] = tested on: Ipomoea hederacea Jacq. (IPOHE); test: as above
Description: as §1, §2, §3, §4, §5, §6, §7, §8, §9, §10, §11

[4] = tested on: Leptochloa chinensis (L.) Nees (LEFCH); test: as above
Description: as §1, §2, §3, §4, §5, §6, §7, §8, §9, §10, §11

[5] = tested on: Amaranthus retroflexus L. (AMARE); test: Postemergence herbicidal activity of mixtures in cereal crops in the greenhouse
Procedure: (§12) Seeds of the desired test plant species were planted in Sun Gro MetroMix 306 planting mixture, which typically has a pH of 6.0 to 6.8 and an organic matter content of about 30 percent, in plastic pots with a surface area of 103.2 square centimeters (cm^2). When required to ensure good germination and healthy plants, a fungicide treatment and/or other chemical or physical treatment was applied. The plants were grown for 7-36 days in a greenhouse with an approximate 14 hour photoperiod which was maintained at about 18° C. during the day and about 17° C. during the night. Nutrients and water were added on a regular basis and supplemental lighting was provided with overhead metal halide 1000-Watt lamps as necessary. The plants were employed for testing when they reached the second or third true leaf stage.
(§13) Treatments consisted of the benzyl ester of 4-amino-3-chloro-5-fluoro-6-(4-chloro-2-fluoro-3-methoxy-phenyl)pyridine-2-carboxylic acid (Compound A), formulated as an SC, a second cereal herbicide alone and then both in combination.
(§14) Other herbicidal components were applied on an active ingredient basis and included cellulose biosynthesis inhibiting herbicides.
(§15) Measured aliquots of benzyl ester of 4-amino-3-chloro-5-fluoro-6-(4-chloro-2-fluoro-3-methoxy-phenyl)pyridine-2-carboxylic acid (Compound A) were placed in 25 milliliter (mL) glass vials and diluted in a volume of 1.25% (v/v) Agri-Dex® crop oil concentrate to obtain stock solutions. Compound requirements are based upon a 12 mL application volume at a rate of 187 liters per hectare (L/ha). Spray solutions of the second cereal herbicide and experimental compound mixtures were prepared by adding the stock solutions to the appropriate amount of dilution solution to form 12 mL spray solution with active ingredients in two- and three-way combinations. Formulated compounds were applied to the plant material with an overhead Mandel track sprayer equipped with an 8002E nozzle calibrated to deliver 187 L/ha over an application area of 0.503 square meters (m^2) at a spray height of 18 inches (46 cm) above average plant canopy. Control plants were sprayed in the same manner with the solvent blank.
as §7, with “20-22 days,” for “approximately 3 weeks,”, “control” for “untreated”, “injury” for “injury or growth inhibition”
as §8, §9, §10, §11

[6] = tested on: Sinapis arvensis L. (SINAR); test: as above
Procedure: as §12, §13, §14, §15
as §7, with “20-22 days,” for “approximately 3 weeks,”, “control” for “untreated”, “injury” for “injury or growth inhibition”
as §8, §9, §10, §11

[7] = tested on: Stellaria media (L.) Vill. (STEME); test: as above
Procedure: as §12, §13, §14, §15
as §7, with “20-22 days,” for “approximately 3 weeks,”, “control” for “untreated”, “injury” for “injury or growth inhibition”
as §8, §9, §10, §11

[8] = Compound A Benzyl Ester 4.38 g ae/ha alone
[9] = Compound A Benzyl Ester 8.75 g ae/ha alone
[10] = Compound A Benzyl Ester 17.5 g ae/ha alone
[11] = Compound A Benzyl Ester 2.5 g ai/ha alone
[12] = Compound A Benzyl Ester 5 g ai/ha alone

## COc1c(Cl)ccc(-c2nc(C(=O)OCc3ccccc3)c(Cl)c(N)c2F)c1F [Compound A Benzyl Ester, benzyl ester of 4-amino-3-chloro-5-fluoro-6-(4-chloro-2-fluoro-3-methoxy-phenyl)pyridine-2-carboxylic acid]
[1]; [8]
  Visual Weed Control (%) - 20 DAA Obs: 70%
[1]; [9]
  Visual Weed Control (%) - 20 DAA Obs: 80%
[1]; [10]
  Visual Weed Control (%) - 20 DAA Obs: 90%
Cyperus iria L. (CYPIR); [8]
  Visual Weed Control (%) - 20 DAA Obs: 70%
[2]; [8]
  Visual Weed Control (%) - 21 DAA Obs: 10%
[2]; [9]
  Visual Weed Control (%) - 20 DAA Obs: 30%
  Visual Weed Control (%) - 21 DAA Obs: 45%
[2]; [10]
  Visual Weed Control (%) - 20 DAA Obs: 30%
  Visual Weed Control (%) - 21 DAA Obs: 70%
[3]; [8]
  Visual Weed Control (%) - 20 DAA Obs: 10%
[3]; [9]
  Visual Weed Control (%) - 20 DAA Obs: 10%
[3]; [10]
  Visual Weed Control (%) - 20 DAA Obs: 15%
[4]; [8]
  Visual Weed Control (%) - 21 DAA Obs: 30%
[4]; [9]
  Visual Weed Control (%) - 21 DAA Obs: 35%
[4]; [10]
  Visual Weed Control (%) - 21 DAA Obs: 35%
[5]; [11]
  Visual Weed Control (%) - 21 DAA AMARE Obs: 20%
[5]; [12]
  Visual Weed Control (%) - 21 DAA AMARE Obs: 38%
[6]; [11]
  Visual Weed Control (%) - 21 DAA SINAR Obs: 70%
[6]; [12]
  Visual Weed Control (%) - 21 DAA SINAR Obs: 73%
[7]; [11]
  Visual Weed Control (%) - 21 DAA Obs: 25%
[7]; [12]
  Visual Weed Control (%) - 21 DAA Obs: 25%
[7]; Compound A Benzyl Ester 10 g ai/ha alone
  Visual Weed Control (%) - 21 DAA Obs: 27%

## CCC(C)(CC)c1cc(NC(=O)c2c(OC)cccc2OC)on1 [Isoxaben, N-[3-(1-ethyl-1-methylpropyl)-5-isoxazolyl]-2,6-dimethoxybenzamide, reference compound]
[1]; Isoxaben 140 g ai/ha alone
  Visual Weed Control (%) - 20 DAA Obs: 0%
[1]; Isoxaben 280 g ai/ha alone
  Visual Weed Control (%) - 20 DAA Obs: 0%
[1]; Isoxaben 560 g ai/ha alone
  Visual Weed Control (%) - 20 DAA Obs: 20%
Cyperus iria L. (CYPIR); Isoxaben 140 g ai/ha alone
  Visual Weed Control (%) - 20 DAA Obs: 10%
Cyperus iria L. (CYPIR); Isoxaben 280 g ai/ha alone
  Visual Weed Control (%) - 20 DAA Obs: 60%
Cyperus iria L. (CYPIR); Isoxaben 560 g ai/ha alone
  Visual Weed Control (%) - 20 DAA Obs: 50%
[2]; Isoxaben 280 g ai/ha alone
  Visual Weed Control (%) - 20 DAA Obs: 10%
[2]; Isoxaben 560 g ai/ha alone
  Visual Weed Control (%) - 20 DAA Obs: 20%
[3]; Isoxaben 140 g ai/ha alone
  Visual Weed Control (%) - 20 DAA Obs: 15%
[3]; Isoxaben 280 g ai/ha alone
  Visual Weed Control (%) - 20 DAA Obs: 25%
[4]; Isoxaben 140 g ai/ha alone
  Visual Weed Control (%) - 20 DAA Obs: 0%
[4]; Isoxaben 280 g ai/ha alone
  Visual Weed Control (%) - 20 DAA Obs: 0%
[5]; Isoxaben 31.25 g ai/ha alone
  Visual Weed Control (%) - 21 DAA AMARE Obs: 0%
[5]; Isoxaben 62.5 g ai/ha alone
  Visual Weed Control (%) - 21 DAA AMARE Obs: 8%
[6]; Isoxaben 31.25 g ai/ha alone
  Visual Weed Control (%) - 21 DAA SINAR Obs: 13%
[6]; Isoxaben 62.5 g ai/ha alone
  Visual Weed Control (%) - 21 DAA SINAR Obs: 13%
[7]; Isoxaben 31.25 g ai/ha alone
  Visual Weed Control (%) - 21 DAA Obs: 5%
[7]; Isoxaben 62.5 g ai/ha alone
  Visual Weed Control (%) - 21 DAA Obs: 5%
